Experimental data reported in patent US20240158446A1, “CYCLIC COMPOUND HAVING SELECTIVE INHIBITORY ACTION ON KRAS OVER HRAS AND NRAS” (CHUGAI SEIYAKU KABUSHIKI KAISHA, priority 2021, published 2024).
*1 amine or outer side, *2 acyl side, *3 side chain or, on linkers, in order; H or OH if unused. Where a SMILES comes first, the peptide text is derived from it. Bridges are numbered along the chain shown (N, C = ends). [ ]: non-standard residue; d: D form. The star is where a group is joined. hPhe(3-Cl-4-CF3) = N[C@@H](CCc1ccc(C(F)(F)F)c(Cl)c1)C(=O)O; NPrPhe(4-CF3) = CCCN[C@@H](Cc1ccc(C(F)(F)F)cc1)C(=O)O; NPrAsp = CCCN([C@@H](CC(=O)[*:3])C(=O)[*:2])[*:1]; NMeGly(cPent) = CN[C@H](C(=O)O)C1CCCC1; NMeNva = CCC[C@H](NC)C(=O)O; Morpholide = C1CN(*)CCO1; Ac4c = NC1(C(=O)O)CCC1; Sar = CNCC(=O)O

Tests used:
[1] = target: GDP-bound HRAS wild-type protein (Homo sapiens, UniProt P01112); assay: Binding to HRAS by surface plasmon resonance (SPR), Single Cycle Kinetics; conditions: ratio of KD for GDP-bound HRAS wild-type protein to KD for KRAS, SPR
Sequence of GDP-bound HRAS wild-type protein (P01112 whole entry): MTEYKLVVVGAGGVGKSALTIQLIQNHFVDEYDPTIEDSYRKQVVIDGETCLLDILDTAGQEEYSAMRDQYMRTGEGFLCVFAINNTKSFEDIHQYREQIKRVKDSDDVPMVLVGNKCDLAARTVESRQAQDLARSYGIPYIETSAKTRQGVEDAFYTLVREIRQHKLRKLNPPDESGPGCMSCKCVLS

[2] = target: GDP-bound KRAS wild-type protein (Homo sapiens, UniProt P01116); assay: Binding to KRAS by surface plasmon resonance (SPR), Single Cycle Kinetics; conditions: SPR, Single Cycle Kinetics, GDP-bound KRAS wild-type protein; read-out: KRAS KD
Sequence of GDP-bound KRAS wild-type protein (P01116 whole entry): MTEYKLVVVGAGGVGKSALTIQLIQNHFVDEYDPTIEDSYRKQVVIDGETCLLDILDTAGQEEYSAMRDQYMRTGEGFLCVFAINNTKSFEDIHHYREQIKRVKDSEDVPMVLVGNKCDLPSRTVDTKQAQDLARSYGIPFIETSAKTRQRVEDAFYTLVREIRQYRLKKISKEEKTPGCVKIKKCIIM

[3] = tested on: human lung cancer strain NCI-H441; assay: cells; conditions: NCI-H441, 96 h, read-out: NCI-H441 IC50 (nM), NCI-H441 cell proliferation, 4 days, CellTiter-Glo;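 further: cell proliferation inhibition after four days measured by CellTiter-Glo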
[4] = target: GDP-bound NRAS wild-type protein (Homo sapiens, UniProt P01111); assay: Binding to NRAS by surface plasmon resonance (SPR), Single Cycle Kinetics; conditions: ratio of KD for GDP-bound NRAS wild-type protein to KD for KRAS, SPR
Sequence of GDP-bound NRAS wild-type protein (P01111 whole entry): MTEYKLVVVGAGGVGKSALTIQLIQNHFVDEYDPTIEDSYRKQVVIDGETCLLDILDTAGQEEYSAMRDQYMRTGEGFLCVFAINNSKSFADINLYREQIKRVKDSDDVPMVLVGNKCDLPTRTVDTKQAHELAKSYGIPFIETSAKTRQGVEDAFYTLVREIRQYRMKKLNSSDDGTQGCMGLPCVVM

Row | Compound | Kd [2] | IC50 [3] | HRAS/KRAS (KD ratio) [1] | NRAS/KRAS (KD ratio) [4]
1 | CCO[C@@H]1C[C@H]2C(=O)NC3(CC(F)(F)C3)C(=O)N(C)[C@@H](C3CCCC3)C(=O)N(C)[C@H](C(=O)N(C)CC)CC(=O)N(C)[C@@H](CC3CC3)C(=O)N[C@@H]([C@@H](C)CC)C(=O)N(C)CC(=O)N(C)[C@H]3C/C=C\CCN(C3=O)[C@@H](Cc3ccc(C(F)(F)F)cc3)C(=O)N(C)CC(=O)N[C@@H](CCc3cc(F)c(C(F)(F)F)c(F)c3)C(=O)N2C1 [PP1738] | 0.071 nM | 5.1 nM | A (a compound having 10 or more and less than 20 is denoted as A) | AA (a compound having 20 or more is denoted as AA)
2 | CCO[C@@H]1C[C@H]2C(=O)NC3(CC(C)(C)C3)C(=O)N(C)[C@@H](C3CCCC3)C(=O)N(C)[C@H](C(=O)N(C)CC)CC(=O)N(C)[C@@H](CC)C(=O)N[C@@H]([C@@H](C)CC)C(=O)N(C)CC(=O)N(C)[C@H]3C/C=C\CCN(C3=O)[C@@H](Cc3ccc(C)cc3)C(=O)N(C)CC(=O)N[C@@H](CCc3ccc(C(F)(F)F)c(OC)c3)C(=O)N2C1 [PP1872] | 0.12 nM | 12.4 nM | A (a compound having 10 or more and less than 20 is denoted as A) | A (a compound having 10 or more and less than 20 is denoted as A)
3 | CCO[C@@H]1C[C@H]2C(=O)N(C)C3(CCCC3)C(=O)N(C)[C@@H](C3CCCC3)C(=O)N(C)[C@H](C(=O)N(C)C)CC(=O)N(C)[C@@H](C3CC3)C(=O)N[C@@H]([C@@H](C)CC)C(=O)N(C)CC(=O)N(C)[C@H]3C/C=C\CCN(C3=O)[C@@H](Cc3ccc(C)cc3)C(=O)N(C)CC(=O)N[C@@H](CCc3cc(F)c(C(F)(F)F)c(F)c3)C(=O)N2C1 [PP1808] | 0.084 nM | 8.8 nM | B (a compound having 3 or more and less than 10 is denoted as B) | A (a compound having 10 or more and less than 20 is denoted as A)

Second part, led by results:

Row | Kd [2] | IC50 [3] | Compound | HRAS/KRAS (KD ratio) [1] | NRAS/KRAS (KD ratio) [4]
4 | 0.19 nM | 19.7 nM | CC[C@H](C)[C@@H]1NC(=O)[C@H](C2CCC2)N(C)C(=O)C[C@@H](C(=O)N(C)CC)N(C)C(=O)[C@H](C2CCCC2)N(C)C(=O)C2(CC(C)(C)C2)NC(=O)[C@@H]2C[C@H](C)CN2C(=O)[C@H](CCc2ccc(C(F)(F)F)c(OC)c2)NC(=O)CN(C)C(=O)[C@H](Cc2ccc(C(F)(F)F)cc2)N2CC/C=C\C[C@@H](C2=O)N(C)C(=O)CN(C)C1=O [PP2009] | A (a compound having 10 or more and less than 20 is denoted as A) | A (a compound having 10 or more and less than 20 is denoted as A)
5 | 0.77 nM | 8.1 nM | CCC[C@H]1C(=O)N[C@@H]([C@@H](C)CC)C(=O)N(C)CC(=O)N(C)CC(=O)N(CCC)[C@@H](Cc2ccc(C(F)(F)F)cc2)C(=O)N(C)CC(=O)N[C@@H](CCc2ccc(C(F)(F)F)c(Cl)c2)C(=O)N2CCC[C@H]2C(=O)NC2(CCC2)C(=O)N(C)[C@@H](C2CCCC2)C(=O)N(CCC)[C@H](C(=O)N2CCOCC2)CC(=O)N1C [PP1954] ([NMeNva]I[Sar][Sar][NPrPhe(4-CF3)][Sar][hPhe(3-Cl-4-CF3)]P[Ac4c][NMeGly(cPent)][NPrAsp]-Morpholide; lactam N-11) | B (a compound having 3 or more and less than 10 is denoted as B) | B (a compound having 3 or more and less than 10 is denoted as B)
6 | 0.29 nM | 20.2 nM | CCO[C@@H]1C[C@H]2C(=O)NC3(CCC3)C(=O)N(C)[C@@H](C3CCCC3)C(=O)N(C)[C@H](CC)CC(=O)N(C)[C@@H](CC)C(=O)N[C@@H]([C@@H](C)CC)C(=O)N(C)CC(=O)N(C)[C@H]3C/C=C\CCN(C3=O)[C@@H](Cc3ccc(C(F)(F)F)cc3)C(=O)N(C)CC(=O)N[C@@H](CCc3cc(F)c(C(F)(F)F)c(F)c3)C(=O)N2C1 [PP1625] | B (a compound having 3 or more and less than 10 is denoted as B) | B (a compound having 3 or more and less than 10 is denoted as B)
